Test results reported in ChEMBL document CHEMBL1129914, “Synthesis and inhibitory effect of a sialyl lewis X-acrylamide homopolymer at preventing cell adhesion” (Bioorg Med Chem Lett, 1997).

What was measured:
Mus musculus = assay: Tested in vivo for the inhibition of LTA -induced neutrophil accumulation into pleural cavity of mice at a dose of 30 mg/kg; assay type: functional
E-selectin = target: T1, E-selectin (Homo sapiens, UniProt P16581); assay: Tested in vitro to inhibit cell adhesion of HL-60 cells to recombinant human soluble Selectin E; assay type: cell-based
T1 sequence (P16581 whole entry): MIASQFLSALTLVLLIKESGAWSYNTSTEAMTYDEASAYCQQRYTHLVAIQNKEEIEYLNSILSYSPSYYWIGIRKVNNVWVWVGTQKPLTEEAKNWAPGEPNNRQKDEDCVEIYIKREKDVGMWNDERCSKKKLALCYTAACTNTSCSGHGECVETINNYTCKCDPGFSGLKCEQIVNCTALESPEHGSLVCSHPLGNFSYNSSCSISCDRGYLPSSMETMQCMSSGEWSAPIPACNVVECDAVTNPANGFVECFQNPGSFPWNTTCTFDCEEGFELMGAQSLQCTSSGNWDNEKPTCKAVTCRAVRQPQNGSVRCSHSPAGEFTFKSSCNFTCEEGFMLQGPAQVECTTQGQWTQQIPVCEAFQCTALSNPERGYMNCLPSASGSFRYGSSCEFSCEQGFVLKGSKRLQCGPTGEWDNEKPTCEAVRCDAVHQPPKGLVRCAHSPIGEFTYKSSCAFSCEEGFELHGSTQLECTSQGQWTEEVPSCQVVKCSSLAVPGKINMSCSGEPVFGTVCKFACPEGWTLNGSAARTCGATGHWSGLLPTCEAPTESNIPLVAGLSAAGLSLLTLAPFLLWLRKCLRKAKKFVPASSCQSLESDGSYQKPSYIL

IC50 (E-selectin)	SMILES	inhibition in vivo at 30 mg/kg (Mus musculus)
1500 µg/mL	CCO[C@@H]1O[C@@H](CO)[C@@H](O[C@@H]2O[C@@H](CO)[C@H](O)[C@H](O[C@]3(C(=O)O)C[C@@H](O)[C@@H](NC(C)=O)[C@H]([C@H](O)[C@H](O)CO)O3)[C@@H]2O)[C@H](O[C@@H]2O[C@@H](C)[C@@H](O)[C@H](O)[C@@H]2O)[C@@H]1NC(C)=O	38%
100 µg/mL	C=CC(=O)NCCCCCCO[C@@H]1O[C@@H](CO)[C@@H](O[C@@H]2O[C@@H](CO)[C@H](O)[C@H](O[C@]3(C(=O)[O-])C[C@@H](O)[C@@H](NC(C)=O)[C@H]([C@H](O)[C@H](O)CO)O3)[C@@H]2O)[C@H](O[C@@H]2O[C@@H](C)[C@@H](O)[C@H](O)[C@@H]2O)[C@@H]1NC(=O)c1ccc2ccccc2c1.[Na+]	35%
